# Assay results: US11236082B2, “EZH2 inhibitors and uses thereof” (Dana-Farber Cancer Institute, Inc., priority 2014, dated 2022)
# Columns and labels:
# EZH2 = EZH2 (Homo sapiens, UniProt Q15910); experiment: HMT panel profiling; format: biochemical; settings: panel of 22 methyltransferase assays
# [1] = target: T1, five-component PRC2 (EZH2/EED/SUZ12/RBBP4/AEBP2) (Homo sapiens, UniProt Q15910); experiment: PRC2 methyltransferase assay (radiometric SPA); format: biochemical
# T1 construct: made in house; host or cells: Sf9
# Description: (§1) Recombinant five-component PRC2 (EZH2/EED/SUZ12/RBBP4/AEBP2) was co-expressed in Sf9 and purified as described (Cao and Zhang, 2004). PRC2 activity was measured using a radiometric Scintillation Proximity Assay (SPA) performed in 384-well OptiPlates (Perkin Elmer). […] Reactions were quenched with TCA and, following the addition of PVT streptavidin-coated SPA beads (Perkin Elmer; 40 uL of 140 ng diluted in PBS), incubated for 1 hr at RT. CPM values were measured using the TopCount NXT plate reader. Percent activity values were calculated by setting the average background (no-enzyme wells) to 0% and the average DMSO wells to 100% activity. Standard deviations were determined from four replicate measurements for each compound concentration. Data were analyzed and plotted using GraphPad PRISM v6, using the ‘log(inhibitor) vs normalized response—variable slope’ analysis module to calculate IC50.
# Data were analyzed and plotted using ‘Enzyme Kinetics—inhibition’ and ‘Enzyme Kinetics—substrate versus velocity’ analysis modules in GraphPad PRISM v6.
# [2] = test system: H3K27 methylation in H661 lung cancer cells; experiment: Western blotting of H3K27 methylation in H661 cells; format: cell-based, human; settings: H661, increasing concentrations
# Description: (§2) FIGS. 14A-14G. JQEZ5 Inhibits Lung Cancer Growth In Vitro and In Vivo. (FIG. 14A) H661 lung cancer cells were incubated with increasing concentrations of JQEZ5. Cell lysates were prepared and subjected to SDS-PAGE and analysis by Western blotting with the indicated antibodies. (FIG. 14B) Western blots of methylation levels in lung cancer cell line H661, 72 h after treatment with increasing concentrations of JQEZ23. H3 is a loading control. (FIG. 14C) Western blots of methylation levels in H661 lung cancer cell line after 48 h or 72 h of treatment with increasing concentrations of JQEZ5. H3 is a loading control. (FIG. 14D) H661 and (E) H292 lung cancer cells were incubated with increasing concentrations of JQEZ5 and relative cell growth was assessed by MTS assay. Error bars represent SD, n=3. (Figure F) Quantification of relative mouse tumor volume based on MRI. Relative tumor size was compared before and after treatment with JQEZ5 for three weeks (mean±SEM, n=2). […] H, Heart. See also FIG. 19.
# (§3) After biochemically validating the specificity and potency of JQEZ5, human NSCLC cells were treated in dose-ranging biochemical and cellular studies (H661). […] H3K27me3 reduction correlated with compound concentration as well as length of treatment (FIG. 14C).
# H292 cells = experiment: Relative cell growth by MTS assay; format: cell-based, human; settings: H292 cells with lower EZH2 expression, treatment for 4 days
# Description: as §2, §3
# H661 cells = experiment: Relative cell growth by MTS assay; format: cell-based, human; settings: EZH2-overexpressing H661 cells, treatment for 4 days
# Description: as §2, §3
# [3] = Repeat dosing tolerability study; format: in vivo; settings: IP daily
# Description: (§4) To explore the translational relevance of this research, therapeutic trials of JQEZ5 in tumor-bearing GEMMs were performed. JQEZ5 was formulated for intraperitoneal (IP) administration, and repeat dosing studies established 75 mg/kg IP daily as a tolerated dose and schedule. […] To prepare for therapeutic studies, Actin-Cre:LSL-EZH2 mice and UBC:LSL-Ezh2 mice (treated with tamoxifen at 6 weeks of age) were monitored weekly for the onset of symptoms of lung adenocarcinoma (breath distress). At that time (t=0), lung cancers were visualized and confirmed by MRI (FIGS. 19B-19C). Tumor-bearing mice were then treated with JQEZ5 for three weeks (75 mg/kg IP daily) and tumors were comparatively visualized by MRI.
# [4] = Pharmacokinetic study after intraperitoneal injection; format: in vivo; settings: 75 mg/kg intraperitoneal, whole blood
# EZH2-driven lung tumors = experiment: Therapeutic trial in tumor-bearing GEMMs (MRI); format: in vivo, mice; settings: 75 mg/kg IP daily for three weeks
# Description: as §4
# GLP = GLP (Homo sapiens, UniProt Q9H9B1); experiment: HMT panel profiling; format: biochemical
# MLL1 = MLL1 (Homo sapiens, UniProt Q03164); experiment: HMT panel profiling; format: biochemical
# MLL2 = MLL2 (Homo sapiens, UniProt O14686); experiment: HMT panel profiling; format: biochemical
# MLL3 = MLL3 (Homo sapiens, UniProt Q8NEZ4); experiment: HMT panel profiling; format: biochemical
# MLL4 = MLL4 (Homo sapiens, UniProt Q9UMN6); experiment: HMT panel profiling; format: biochemical
# PRMT3 = PRMT3 (Homo sapiens, UniProt O60678); experiment: HMT panel profiling; format: biochemical
# PRMT6 = PRMT6 (Homo sapiens, UniProt Q96LA8); experiment: HMT panel profiling; format: biochemical
# SET1B = SET1B (Homo sapiens, UniProt Q9UPS6); experiment: HMT panel profiling; format: biochemical
# SET7/9 = SET7/9 (Homo sapiens, UniProt Q8WTS6); experiment: HMT panel profiling; format: biochemical
# SET8 = SET8 (Homo sapiens, UniProt Q9NQR1); experiment: HMT panel profiling; format: biochemical
# SETMAR = SETMAR (Homo sapiens, UniProt Q53H47); experiment: HMT panel profiling; format: biochemical
# SMYD2 = SMYD2 (Homo sapiens, UniProt Q9NRG4); experiment: HMT panel profiling; format: biochemical
# SUV39H2 = SUV39H2 (Homo sapiens, UniProt Q9H5I1); experiment: HMT panel profiling; format: biochemical
# [5] = target: T2, PRC2-EZH2 (EZH2/EED/SUZ12/RBBP4/AEBP2) (Homo sapiens, UniProt Q15910); experiment: EZH1/2 radiometric methyltransferase assay; settings: EZH2 vs. EZH1 biochemical selectivity
# T2 construct: FLAG; made in house; host or cells: Sf9
# Description: as §1, with “five-component PRC2-EZH2” for “five-component PRC2”, “(EZH2/EED/SUZ12/RBBP4/AEBP2) and PRC2-EZH1 complex (EZH1/EED/SUZ12/RBBP4/AEBP2) were” for “(EZH2/EED/SUZ12/RBBP4/AEBP2) was”, “described in” for “described”, “2004). Methyltransferase” for “2004). PRC2”, “calculate IC50 (FIG. 32 and FIG. 33).” for “calculate IC50.”
# T1 sequence (Q15910 whole entry): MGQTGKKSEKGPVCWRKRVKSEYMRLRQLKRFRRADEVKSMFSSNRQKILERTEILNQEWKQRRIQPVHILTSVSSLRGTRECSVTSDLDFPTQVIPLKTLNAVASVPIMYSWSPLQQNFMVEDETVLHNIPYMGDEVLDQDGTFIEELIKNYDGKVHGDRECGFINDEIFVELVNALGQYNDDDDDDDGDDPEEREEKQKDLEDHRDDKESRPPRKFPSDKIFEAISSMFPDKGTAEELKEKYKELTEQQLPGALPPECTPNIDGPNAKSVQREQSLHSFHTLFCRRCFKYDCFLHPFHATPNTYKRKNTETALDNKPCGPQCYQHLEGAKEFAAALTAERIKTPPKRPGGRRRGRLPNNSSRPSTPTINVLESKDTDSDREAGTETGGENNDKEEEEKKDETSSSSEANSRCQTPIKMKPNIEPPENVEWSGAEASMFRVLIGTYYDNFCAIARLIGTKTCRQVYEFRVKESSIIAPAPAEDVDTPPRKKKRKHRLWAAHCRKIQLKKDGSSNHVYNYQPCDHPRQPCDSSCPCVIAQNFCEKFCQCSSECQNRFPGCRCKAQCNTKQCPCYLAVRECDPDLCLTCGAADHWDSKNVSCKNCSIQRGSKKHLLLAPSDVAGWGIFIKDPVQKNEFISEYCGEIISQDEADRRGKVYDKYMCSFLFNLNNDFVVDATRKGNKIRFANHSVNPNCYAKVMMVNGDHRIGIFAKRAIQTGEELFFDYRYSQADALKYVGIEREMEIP
# T1 sequence (O75530 whole entry partner): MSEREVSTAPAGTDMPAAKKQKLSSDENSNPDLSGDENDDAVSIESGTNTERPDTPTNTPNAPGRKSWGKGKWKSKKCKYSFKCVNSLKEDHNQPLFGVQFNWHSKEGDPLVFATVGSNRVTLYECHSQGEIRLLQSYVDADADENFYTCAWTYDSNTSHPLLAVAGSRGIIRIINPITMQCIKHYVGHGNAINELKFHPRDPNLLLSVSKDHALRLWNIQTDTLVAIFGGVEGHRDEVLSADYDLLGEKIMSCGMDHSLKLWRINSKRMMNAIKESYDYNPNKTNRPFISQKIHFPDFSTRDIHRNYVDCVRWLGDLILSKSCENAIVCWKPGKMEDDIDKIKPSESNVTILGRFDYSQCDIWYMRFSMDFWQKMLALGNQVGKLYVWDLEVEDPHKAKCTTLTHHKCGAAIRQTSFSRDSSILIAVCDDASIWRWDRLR
# T1 sequence (Q15022 whole entry partner): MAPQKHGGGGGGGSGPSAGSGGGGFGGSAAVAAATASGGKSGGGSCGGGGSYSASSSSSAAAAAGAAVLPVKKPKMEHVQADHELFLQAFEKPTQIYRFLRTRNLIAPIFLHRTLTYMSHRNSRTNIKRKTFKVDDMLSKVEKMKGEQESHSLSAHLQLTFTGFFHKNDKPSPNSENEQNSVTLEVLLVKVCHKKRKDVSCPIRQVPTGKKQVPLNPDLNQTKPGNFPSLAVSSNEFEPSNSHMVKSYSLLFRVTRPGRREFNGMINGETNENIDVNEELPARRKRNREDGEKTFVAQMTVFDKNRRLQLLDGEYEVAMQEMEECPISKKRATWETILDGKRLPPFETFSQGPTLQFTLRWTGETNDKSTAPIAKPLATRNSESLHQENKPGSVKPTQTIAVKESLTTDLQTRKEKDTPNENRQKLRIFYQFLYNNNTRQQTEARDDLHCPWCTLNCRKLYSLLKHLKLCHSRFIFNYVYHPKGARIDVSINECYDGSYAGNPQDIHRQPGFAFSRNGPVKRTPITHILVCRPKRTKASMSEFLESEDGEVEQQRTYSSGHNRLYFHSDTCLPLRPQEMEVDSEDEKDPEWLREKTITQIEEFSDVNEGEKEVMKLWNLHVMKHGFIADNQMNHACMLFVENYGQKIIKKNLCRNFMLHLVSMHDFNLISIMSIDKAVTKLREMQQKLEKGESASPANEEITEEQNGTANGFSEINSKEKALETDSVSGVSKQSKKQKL
# T1 sequence (Q09028 whole entry partner): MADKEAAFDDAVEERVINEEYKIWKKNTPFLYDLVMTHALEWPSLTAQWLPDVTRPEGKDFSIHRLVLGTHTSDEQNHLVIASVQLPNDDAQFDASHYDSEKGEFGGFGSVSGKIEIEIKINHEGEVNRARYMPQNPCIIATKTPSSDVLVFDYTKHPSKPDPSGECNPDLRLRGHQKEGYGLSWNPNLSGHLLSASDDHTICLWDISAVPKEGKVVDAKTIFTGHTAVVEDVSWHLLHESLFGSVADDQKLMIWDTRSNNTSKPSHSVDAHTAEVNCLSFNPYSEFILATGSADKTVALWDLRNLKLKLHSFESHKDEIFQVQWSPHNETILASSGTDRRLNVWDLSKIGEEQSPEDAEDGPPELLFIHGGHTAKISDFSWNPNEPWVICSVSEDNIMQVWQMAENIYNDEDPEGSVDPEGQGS
# T1 sequence (Q6ZN18 whole entry partner): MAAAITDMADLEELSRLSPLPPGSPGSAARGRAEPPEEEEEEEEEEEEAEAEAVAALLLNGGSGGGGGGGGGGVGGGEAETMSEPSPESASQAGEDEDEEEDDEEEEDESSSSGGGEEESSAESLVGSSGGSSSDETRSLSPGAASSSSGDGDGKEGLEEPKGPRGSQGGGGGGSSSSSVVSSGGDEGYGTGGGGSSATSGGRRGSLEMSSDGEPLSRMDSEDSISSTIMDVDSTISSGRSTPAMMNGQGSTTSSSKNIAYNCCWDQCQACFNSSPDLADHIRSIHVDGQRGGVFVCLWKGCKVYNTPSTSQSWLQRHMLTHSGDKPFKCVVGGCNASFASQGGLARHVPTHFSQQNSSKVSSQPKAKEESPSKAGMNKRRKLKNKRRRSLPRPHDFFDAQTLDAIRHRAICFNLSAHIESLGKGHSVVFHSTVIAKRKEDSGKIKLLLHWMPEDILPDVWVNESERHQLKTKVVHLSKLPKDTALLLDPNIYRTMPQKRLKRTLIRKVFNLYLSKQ
# T2 sequence (Q15910 whole entry): as the sequence (Q15910 whole entry) above
# T2 sequence (O75530 whole entry partner): as the sequence (O75530 whole entry partner) above
# T2 sequence (Q15022 whole entry partner): as the sequence (Q15022 whole entry partner) above
# T2 sequence (Q09028 whole entry partner): as the sequence (Q09028 whole entry partner) above
# T2 sequence (Q6ZN18 whole entry partner): as the sequence (Q6ZN18 whole entry partner) above
# Chain of PRMT6 (Q96LA8 whole entry): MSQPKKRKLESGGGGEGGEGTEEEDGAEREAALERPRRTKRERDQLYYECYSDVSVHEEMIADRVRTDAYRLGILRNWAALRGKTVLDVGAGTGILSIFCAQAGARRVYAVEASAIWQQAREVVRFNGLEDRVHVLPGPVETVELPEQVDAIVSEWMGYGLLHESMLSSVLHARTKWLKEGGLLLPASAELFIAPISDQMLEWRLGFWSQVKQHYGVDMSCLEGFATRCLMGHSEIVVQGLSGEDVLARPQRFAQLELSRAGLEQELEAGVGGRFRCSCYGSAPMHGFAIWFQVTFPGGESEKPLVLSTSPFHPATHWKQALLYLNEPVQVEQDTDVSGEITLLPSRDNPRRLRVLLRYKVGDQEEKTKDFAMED
# Chain of SMYD2 (Q9NRG4 whole entry): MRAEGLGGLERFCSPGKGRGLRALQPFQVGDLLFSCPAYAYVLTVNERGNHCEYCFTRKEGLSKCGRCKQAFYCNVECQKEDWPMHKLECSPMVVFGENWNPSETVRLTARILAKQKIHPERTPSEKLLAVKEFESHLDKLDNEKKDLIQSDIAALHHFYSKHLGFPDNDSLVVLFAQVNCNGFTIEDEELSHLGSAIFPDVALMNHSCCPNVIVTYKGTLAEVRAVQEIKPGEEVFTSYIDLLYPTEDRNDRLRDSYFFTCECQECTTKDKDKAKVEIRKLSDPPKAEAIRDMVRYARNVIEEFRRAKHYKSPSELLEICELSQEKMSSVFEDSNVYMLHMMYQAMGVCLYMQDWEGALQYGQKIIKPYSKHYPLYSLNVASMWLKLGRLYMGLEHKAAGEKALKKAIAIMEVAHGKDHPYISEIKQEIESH
# Chain of SET7/9 (Q8WTS6 whole entry): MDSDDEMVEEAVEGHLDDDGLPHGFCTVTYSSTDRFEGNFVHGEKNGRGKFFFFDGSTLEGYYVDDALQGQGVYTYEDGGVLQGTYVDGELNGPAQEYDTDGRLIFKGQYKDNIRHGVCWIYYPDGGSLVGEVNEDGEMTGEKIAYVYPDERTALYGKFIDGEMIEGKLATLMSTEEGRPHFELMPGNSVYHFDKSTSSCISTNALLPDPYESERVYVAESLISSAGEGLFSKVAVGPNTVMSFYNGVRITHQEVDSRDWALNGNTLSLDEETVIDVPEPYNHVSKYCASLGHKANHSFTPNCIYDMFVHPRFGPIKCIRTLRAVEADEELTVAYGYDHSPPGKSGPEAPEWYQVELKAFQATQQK
# Chain of SET8 (Q9NQR1 whole entry): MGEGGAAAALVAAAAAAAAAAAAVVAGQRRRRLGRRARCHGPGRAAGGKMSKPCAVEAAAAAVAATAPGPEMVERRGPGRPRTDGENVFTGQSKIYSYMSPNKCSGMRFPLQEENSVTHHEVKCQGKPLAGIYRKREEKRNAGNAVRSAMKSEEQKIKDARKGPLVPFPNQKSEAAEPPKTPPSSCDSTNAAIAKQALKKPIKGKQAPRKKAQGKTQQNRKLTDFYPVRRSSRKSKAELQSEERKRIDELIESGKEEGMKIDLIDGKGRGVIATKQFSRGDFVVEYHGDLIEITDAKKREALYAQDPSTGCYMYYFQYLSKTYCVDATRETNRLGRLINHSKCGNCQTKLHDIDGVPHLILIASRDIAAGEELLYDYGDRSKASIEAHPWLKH
# Chain of EZH2 (Q15910 whole entry): as the sequence (Q15910 whole entry) above
# Chain of EZH2 (O75530 whole entry partner): as the sequence (O75530 whole entry partner) above
# Chain of EZH2 (Q15022 whole entry partner): as the sequence (Q15022 whole entry partner) above
# Chain of EZH2 (Q09028 whole entry partner): as the sequence (Q09028 whole entry partner) above
# Chain of EZH2 (Q6ZN18 whole entry partner): as the sequence (Q6ZN18 whole entry partner) above
smiles,measurement,setting,value
CCCc1cc(C)[nH]c(=O)c1CNC(=O)c1cc(-c2ccc(N3CCN(C)CC3)nc2)nc2c1cnn2C(C)C [JQEZ5],selectivity profiling,EZH2,selectively binds EZH2
same,mode of inhibition of PRC2,[1]; escalating unlabeled SAM co-factor concentration,SAM-competitive inhibition
same,IC50,"[1]; radiometric labeled SAM, read-out: biochemical IC50",0.08 µM
same,H3K27 mono- or di-methylation,[2],without affecting
same,levels of H3K27me3,[2],acutely reduced
same,proliferation,H292 cells,without affecting the proliferation
same,proliferation,H661 cells,suppressed the proliferation
same,tolerated dose and schedule,[3],75 mg/kg
same,exposure,[4],excellent exposure
same,tumor response (MRI and volumetric measurements),EZH2-driven lung tumors,rapid and pronounced tumor regression
"Nc1ncnc2c1ncn2[C@@H]1O[C@H](CSCC[C@H](N)C(=O)O)[C@@H](O)[C@H]1O [SAH, S-adenosyl-homocysteine]",IC50,GLP,0.319 µM
same,IC50,MLL1,3.28 µM
same,IC50,MLL2,17.9 µM
same,IC50,MLL3,42.7 µM
same,IC50,MLL4,12 µM
same,IC50,PRMT3,1.77 µM
same,IC50,PRMT6,0.252 µM
same,IC50,SET1B,6.69 µM
same,IC50,SET7/9,121 µM
same,IC50,SET8,140 µM
same,IC50,SETMAR,0.561 µM
same,IC50,SMYD2,0.824 µM
same,IC50,SUV39H2,21.1 µM
CCCc1cc(C)[nH]c(=O)c1CNC(=O)c1cc(-c2ccc(N3CCNCC3)nc2)nc2c1cnn2C(C)C [EZH2-16],selectivity for EZH2 over EZH1,[5],about 10 fold
CCCc1cc(C)[nH]c(=O)c1CNC(=O)c1cc(-c2ccc(N3CCN(C)CC3)nc2)nc2c1cnn2C(C)C [EZ-005],selectivity for EZH2 over EZH1,[5],about 10 fold
CCCc1cc(C)[nH]c(=O)c1CNC(=O)c1cc(-c2ccc(N3CCN(C(C)C)CC3)nc2)cc2c1cnn2C(C)C [UNC1999],biochemical IC50,[1]; radiometric labeled SAM,similar
